Assay results reported in ChEMBL document CHEMBL1201862, “PubChem BioAssay data set” (2004).
Calls of active or inactive are those of the source.

Columns and labels:
Format in all cases: functional
[1] = target: 5'-AMP-activated protein kinase catalytic subunit alpha-1 (Homo sapiens, UniProt Q13131)
[2] = target: T1, Serine/threonine-protein kinase PLK4 (Homo sapiens, UniProt O00444);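 note: PLK4 measured as one member of a kinome-wide kinase profiling panel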
T1 sequence (O00444 whole entry): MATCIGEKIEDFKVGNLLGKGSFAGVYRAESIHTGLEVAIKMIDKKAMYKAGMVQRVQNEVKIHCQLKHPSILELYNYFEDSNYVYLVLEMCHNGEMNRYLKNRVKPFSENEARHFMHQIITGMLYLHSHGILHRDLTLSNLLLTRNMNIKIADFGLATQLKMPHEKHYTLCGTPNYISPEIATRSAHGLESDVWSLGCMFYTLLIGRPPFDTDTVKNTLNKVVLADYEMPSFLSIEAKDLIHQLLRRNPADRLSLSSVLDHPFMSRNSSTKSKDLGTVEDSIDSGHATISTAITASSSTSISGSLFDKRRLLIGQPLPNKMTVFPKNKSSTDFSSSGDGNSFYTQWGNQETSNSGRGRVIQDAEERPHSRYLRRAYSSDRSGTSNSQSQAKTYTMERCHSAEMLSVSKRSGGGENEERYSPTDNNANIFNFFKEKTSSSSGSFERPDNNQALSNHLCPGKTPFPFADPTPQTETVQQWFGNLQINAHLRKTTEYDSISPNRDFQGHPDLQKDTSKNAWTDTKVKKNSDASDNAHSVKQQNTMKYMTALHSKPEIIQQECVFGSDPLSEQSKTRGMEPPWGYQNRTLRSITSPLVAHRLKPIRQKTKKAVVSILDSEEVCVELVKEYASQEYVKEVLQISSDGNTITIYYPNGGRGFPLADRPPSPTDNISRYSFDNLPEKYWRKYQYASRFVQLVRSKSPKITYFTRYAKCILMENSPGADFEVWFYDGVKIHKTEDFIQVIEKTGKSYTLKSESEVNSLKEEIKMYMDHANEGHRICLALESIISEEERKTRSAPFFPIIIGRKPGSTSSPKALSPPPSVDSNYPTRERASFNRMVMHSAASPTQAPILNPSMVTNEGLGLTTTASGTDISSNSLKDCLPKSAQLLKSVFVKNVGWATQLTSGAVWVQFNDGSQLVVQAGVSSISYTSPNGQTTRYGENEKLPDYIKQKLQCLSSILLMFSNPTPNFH

SRSF protein kinase 1 = SRSF protein kinase 1 (Homo sapiens, UniProt Q96SB4);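 note: measured as one member of a kinome-wide kinase profiling panel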
[3] = target: Tyrosine-protein kinase BTK (Homo sapiens, UniProt Q06187)
[4] = target: Mitogen-activated protein kinase 9 (Homo sapiens, UniProt P45984);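 note: value from a kinome panel profiling assay, MAPK9 panel entry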
[5] = target: T2, Tyrosine-protein kinase ITK/TSK (Homo sapiens, UniProt Q08881);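 note: affinity for ITK measured as one member of a broad kinase panel profiling binding across the kinome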
T2 sequence (Q08881 whole entry): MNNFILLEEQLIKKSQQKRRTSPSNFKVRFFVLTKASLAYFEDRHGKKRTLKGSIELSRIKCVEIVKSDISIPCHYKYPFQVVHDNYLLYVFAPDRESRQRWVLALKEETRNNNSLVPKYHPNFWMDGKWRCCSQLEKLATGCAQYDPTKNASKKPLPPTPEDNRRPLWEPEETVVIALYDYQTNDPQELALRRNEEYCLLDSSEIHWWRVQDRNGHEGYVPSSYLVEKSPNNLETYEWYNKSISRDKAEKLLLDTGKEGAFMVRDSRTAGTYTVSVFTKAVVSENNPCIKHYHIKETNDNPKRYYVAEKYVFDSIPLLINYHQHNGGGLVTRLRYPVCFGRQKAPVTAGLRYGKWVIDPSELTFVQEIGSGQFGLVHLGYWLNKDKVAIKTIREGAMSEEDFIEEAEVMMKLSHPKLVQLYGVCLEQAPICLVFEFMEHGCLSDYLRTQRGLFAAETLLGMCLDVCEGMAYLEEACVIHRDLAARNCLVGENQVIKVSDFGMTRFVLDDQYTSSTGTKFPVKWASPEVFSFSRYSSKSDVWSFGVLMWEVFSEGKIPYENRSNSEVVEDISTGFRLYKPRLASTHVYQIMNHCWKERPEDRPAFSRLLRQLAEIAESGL

[6] = target: MAP/microtubule affinity-regulating kinase 3 (Homo sapiens, UniProt P27448);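 note: MARK3 affinity measured as one member of a kinome panel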
[7] = target: High affinity nerve growth factor receptor (Homo sapiens, UniProt P04629);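 note: NTRK1 tested as one member of a kinome-wide profiling panel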
[8] = target: Mitogen-activated protein kinase 1 (Homo sapiens, UniProt P28482)
Misshapen-like kinase 1 = Misshapen-like kinase 1 (Homo sapiens, UniProt Q8N4C8);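 note: kinome panel screen with MINK as the panel member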
[9] = target: Serine/threonine-protein kinase pim-2 (Homo sapiens, UniProt Q9P1W9);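 note: value comes from a broad kinase panel profiling study in which PIM2 was one of the panel members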
[10] = target: Fibroblast growth factor receptor 3 (Homo sapiens, UniProt P22607)
[11] = target: Receptor tyrosine-protein kinase erbB-4 (Homo sapiens, UniProt Q15303);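 note: ERBB4 member of a kinome-wide kinase profiling panel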
[12] = target: cAMP-dependent protein kinase catalytic subunit alpha (Homo sapiens, UniProt P17612)
[13] = target: Serine/threonine-protein kinase MRCK alpha (Homo sapiens, UniProt Q5VT25)
[14] = target: Dual specificity tyrosine-phosphorylation-regulated kinase 1A (Homo sapiens, UniProt Q13627);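 note: measured against DYRK1A as one member of a broad kinome profiling panel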

Chain of Misshapen-like kinase 1 (Q8N4C8 whole entry): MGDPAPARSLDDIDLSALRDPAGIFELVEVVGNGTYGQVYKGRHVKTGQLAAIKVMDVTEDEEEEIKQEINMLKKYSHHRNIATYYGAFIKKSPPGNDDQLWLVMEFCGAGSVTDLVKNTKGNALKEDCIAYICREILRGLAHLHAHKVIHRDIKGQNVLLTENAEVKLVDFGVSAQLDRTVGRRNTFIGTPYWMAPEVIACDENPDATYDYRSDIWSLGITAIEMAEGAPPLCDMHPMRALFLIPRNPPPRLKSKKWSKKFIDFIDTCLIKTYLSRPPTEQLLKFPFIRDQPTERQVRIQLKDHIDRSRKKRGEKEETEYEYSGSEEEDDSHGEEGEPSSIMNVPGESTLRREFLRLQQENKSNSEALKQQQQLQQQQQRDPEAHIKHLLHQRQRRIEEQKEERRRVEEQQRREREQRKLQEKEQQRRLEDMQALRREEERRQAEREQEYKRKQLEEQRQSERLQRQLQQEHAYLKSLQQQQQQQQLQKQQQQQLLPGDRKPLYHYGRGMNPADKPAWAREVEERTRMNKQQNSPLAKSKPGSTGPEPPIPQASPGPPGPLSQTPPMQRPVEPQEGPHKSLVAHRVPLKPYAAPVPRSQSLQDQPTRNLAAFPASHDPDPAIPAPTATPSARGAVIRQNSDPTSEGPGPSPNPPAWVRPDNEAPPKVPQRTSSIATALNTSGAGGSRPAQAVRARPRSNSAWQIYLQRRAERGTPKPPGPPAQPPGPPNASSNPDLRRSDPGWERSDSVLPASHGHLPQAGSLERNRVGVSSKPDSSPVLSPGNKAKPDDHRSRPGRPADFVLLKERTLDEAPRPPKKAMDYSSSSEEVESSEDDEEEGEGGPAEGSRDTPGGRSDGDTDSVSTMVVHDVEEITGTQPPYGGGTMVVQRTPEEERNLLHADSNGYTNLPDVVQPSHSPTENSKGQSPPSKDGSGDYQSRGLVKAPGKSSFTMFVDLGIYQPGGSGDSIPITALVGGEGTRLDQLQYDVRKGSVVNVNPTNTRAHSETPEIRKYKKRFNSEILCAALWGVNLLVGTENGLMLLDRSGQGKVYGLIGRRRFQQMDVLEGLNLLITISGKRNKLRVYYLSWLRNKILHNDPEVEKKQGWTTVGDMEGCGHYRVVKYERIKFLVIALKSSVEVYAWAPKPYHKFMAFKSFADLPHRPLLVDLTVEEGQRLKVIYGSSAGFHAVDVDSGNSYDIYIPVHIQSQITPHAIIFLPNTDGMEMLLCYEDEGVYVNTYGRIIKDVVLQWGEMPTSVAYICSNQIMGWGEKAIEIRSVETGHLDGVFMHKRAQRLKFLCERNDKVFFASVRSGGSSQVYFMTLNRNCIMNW
Chain of Mitogen-activated protein kinase 1 (P28482 whole entry): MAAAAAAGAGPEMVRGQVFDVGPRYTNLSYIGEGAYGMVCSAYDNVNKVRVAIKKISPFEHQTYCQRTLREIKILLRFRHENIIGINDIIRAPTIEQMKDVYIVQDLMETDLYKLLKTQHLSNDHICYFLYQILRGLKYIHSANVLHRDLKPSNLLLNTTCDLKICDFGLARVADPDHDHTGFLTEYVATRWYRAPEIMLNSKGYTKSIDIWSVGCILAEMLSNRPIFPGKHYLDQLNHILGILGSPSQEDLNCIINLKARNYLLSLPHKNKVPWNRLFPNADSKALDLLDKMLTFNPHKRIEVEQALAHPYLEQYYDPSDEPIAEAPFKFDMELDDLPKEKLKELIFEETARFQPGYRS
Chain of Serine/threonine-protein kinase MRCK alpha (Q5VT25 whole entry): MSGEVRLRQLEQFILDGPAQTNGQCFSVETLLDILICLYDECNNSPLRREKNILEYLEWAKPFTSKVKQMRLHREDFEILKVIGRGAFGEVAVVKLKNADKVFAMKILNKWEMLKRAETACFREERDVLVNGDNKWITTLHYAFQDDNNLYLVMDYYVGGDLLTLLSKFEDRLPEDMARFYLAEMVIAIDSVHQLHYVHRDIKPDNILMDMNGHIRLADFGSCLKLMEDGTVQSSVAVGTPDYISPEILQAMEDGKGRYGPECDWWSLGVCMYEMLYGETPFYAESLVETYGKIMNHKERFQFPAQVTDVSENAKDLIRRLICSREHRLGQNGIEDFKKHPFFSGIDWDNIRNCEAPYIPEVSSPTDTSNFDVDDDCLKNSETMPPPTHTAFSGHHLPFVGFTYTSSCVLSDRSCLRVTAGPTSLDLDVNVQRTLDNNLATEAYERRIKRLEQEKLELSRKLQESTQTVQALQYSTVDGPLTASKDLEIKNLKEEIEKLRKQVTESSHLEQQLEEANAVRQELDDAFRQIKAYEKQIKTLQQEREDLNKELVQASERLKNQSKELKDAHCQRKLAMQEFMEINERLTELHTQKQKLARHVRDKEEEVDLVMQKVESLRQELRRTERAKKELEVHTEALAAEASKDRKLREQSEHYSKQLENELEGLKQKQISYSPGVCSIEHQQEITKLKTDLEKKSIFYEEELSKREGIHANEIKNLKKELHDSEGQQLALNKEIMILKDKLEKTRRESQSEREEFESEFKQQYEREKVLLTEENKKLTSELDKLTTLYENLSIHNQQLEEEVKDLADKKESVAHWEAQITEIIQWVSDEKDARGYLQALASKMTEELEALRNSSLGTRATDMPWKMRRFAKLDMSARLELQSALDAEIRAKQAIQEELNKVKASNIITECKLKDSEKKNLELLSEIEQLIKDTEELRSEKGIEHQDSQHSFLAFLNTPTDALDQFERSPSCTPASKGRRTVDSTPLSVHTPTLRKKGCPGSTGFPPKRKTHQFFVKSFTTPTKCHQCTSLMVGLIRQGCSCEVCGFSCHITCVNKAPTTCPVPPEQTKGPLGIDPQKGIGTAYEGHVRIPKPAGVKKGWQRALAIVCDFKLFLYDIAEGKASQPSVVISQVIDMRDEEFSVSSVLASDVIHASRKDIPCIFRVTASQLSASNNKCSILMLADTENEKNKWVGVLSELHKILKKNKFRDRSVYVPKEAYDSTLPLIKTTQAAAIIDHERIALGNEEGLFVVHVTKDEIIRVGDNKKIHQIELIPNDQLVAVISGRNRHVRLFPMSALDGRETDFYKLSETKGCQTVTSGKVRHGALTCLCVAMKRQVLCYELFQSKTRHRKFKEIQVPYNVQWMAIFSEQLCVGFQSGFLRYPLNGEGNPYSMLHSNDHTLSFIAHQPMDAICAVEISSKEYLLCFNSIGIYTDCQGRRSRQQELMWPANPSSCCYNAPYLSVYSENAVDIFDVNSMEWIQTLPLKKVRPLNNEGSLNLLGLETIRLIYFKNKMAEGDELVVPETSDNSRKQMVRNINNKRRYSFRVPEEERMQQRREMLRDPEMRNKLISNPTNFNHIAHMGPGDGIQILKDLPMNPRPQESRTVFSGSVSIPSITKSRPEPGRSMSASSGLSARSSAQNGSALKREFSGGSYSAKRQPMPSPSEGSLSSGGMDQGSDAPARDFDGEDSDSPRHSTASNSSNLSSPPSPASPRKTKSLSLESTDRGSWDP
Chain of MAP/microtubule affinity-regulating kinase 3 (P27448 whole entry): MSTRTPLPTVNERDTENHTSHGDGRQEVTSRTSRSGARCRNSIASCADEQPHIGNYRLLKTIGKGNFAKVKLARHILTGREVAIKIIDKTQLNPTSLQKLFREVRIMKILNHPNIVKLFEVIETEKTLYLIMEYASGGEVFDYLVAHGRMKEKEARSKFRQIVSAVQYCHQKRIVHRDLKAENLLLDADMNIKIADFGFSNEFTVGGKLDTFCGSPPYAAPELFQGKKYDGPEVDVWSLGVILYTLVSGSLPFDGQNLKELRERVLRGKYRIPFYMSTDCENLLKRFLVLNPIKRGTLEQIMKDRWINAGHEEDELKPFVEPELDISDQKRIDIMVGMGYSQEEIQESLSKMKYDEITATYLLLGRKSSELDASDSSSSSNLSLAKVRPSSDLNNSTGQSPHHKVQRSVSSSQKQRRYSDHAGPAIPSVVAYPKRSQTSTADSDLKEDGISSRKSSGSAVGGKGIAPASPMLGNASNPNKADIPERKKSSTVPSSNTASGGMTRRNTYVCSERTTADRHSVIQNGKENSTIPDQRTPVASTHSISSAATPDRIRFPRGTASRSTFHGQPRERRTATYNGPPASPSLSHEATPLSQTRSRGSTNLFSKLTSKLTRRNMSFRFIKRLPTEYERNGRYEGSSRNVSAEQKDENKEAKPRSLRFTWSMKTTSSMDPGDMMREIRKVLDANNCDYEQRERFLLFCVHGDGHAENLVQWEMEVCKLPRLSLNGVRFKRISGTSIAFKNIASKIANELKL
Chain of Mitogen-activated protein kinase 9 (P45984 whole entry): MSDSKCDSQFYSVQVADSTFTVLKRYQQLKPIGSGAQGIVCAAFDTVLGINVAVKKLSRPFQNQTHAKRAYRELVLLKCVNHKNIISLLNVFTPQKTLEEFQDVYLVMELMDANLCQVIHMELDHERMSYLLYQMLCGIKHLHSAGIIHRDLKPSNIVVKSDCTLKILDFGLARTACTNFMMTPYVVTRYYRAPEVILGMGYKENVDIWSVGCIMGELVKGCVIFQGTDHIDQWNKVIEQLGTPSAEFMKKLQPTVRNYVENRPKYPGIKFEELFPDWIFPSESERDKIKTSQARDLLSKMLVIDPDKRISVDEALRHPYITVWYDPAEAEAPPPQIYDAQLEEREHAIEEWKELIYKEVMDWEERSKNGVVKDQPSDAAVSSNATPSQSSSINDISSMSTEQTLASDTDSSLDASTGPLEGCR
Chain of Serine/threonine-protein kinase pim-2 (Q9P1W9 whole entry): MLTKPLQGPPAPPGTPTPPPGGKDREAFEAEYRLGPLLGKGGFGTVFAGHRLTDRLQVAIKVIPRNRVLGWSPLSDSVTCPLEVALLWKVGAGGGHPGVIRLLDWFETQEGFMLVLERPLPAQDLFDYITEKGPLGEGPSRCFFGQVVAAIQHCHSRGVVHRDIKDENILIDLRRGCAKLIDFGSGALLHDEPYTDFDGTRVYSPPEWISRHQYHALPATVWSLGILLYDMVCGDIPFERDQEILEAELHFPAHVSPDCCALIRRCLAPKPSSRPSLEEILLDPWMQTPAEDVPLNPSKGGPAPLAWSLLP

Ki [1]	Ki [2]	Ki (SRSF protein kinase 1)	Ki [3]	Ki [4]	Ki [5]	Ki [6]	Ki [7]	Ki [8]	Ki (Misshapen-like kinase 1)	Ki [9]	Ki [10]	Ki [11]	Ki [12]	Ki [13]	Ki [14]	SMILES	further results
> 1.58 µM (inactive)	0.501 µM (active)	1.26 µM (active)	> 1.26 µM (inactive)	0.501 µM (active)	> 1.58 µM (inactive)	0.501 µM (active)	> 2.51 µM (inactive)	0.0316 µM (active)	1.58 µM (active)	> 1.58 µM (inactive)	> 2 µM (inactive)	> 3.98 µM (inactive)	0.398 µM (active)	1.26 µM (active)	0.000794 µM (active)	NC(=O)c1cc(-c2ccnc(N)n2)[nH]c1-c1ccc(Cl)cc1Cl	pKi [2]: 6.3; pKi (SRSF protein kinase 1): 5.9; pKi [4]: 6.3; pKi [6]: 6.3; pKi [8]: 7.5; pKi (Misshapen-like kinase 1): 5.8; pKi [12]: 6.4; pKi [13]: 5.9; pKi [14]: 9.1
0.02 µM (active)	0.2 µM (active)	0.0794 µM (active)	0.501 µM (active)	0.398 µM (active)	1.26 µM (active)	0.0398 µM (active)	0.0794 µM (active)	0.398 µM (active)	0.0398 µM (active)	0.001 µM (active)	> 2 µM (inactive)	> 3.98 µM (inactive)	0.0126 µM (active)	0.316 µM (active)	0.00251 µM (active)	NC(COc1cncc(-c2ccc3c(c2)C(=Cc2ccco2)C(=O)N3)c1)Cc1c[nH]c2ccccc12 (stereo unspecified)	

SMILES	Ki [1]	Ki [2]	Ki (SRSF protein kinase 1)	Ki [3]	Ki [4]	Ki [5]	Ki [6]	Ki [7]	Ki [8]	Ki (Misshapen-like kinase 1)	Ki [9]	Ki [10]	Ki [11]	Ki [12]	Ki [13]	Ki [14]	further results
Cc1ccc(-n2nc(C(C)(C)C)cc2NC(=O)Nc2ccc(OCCN3CCOCC3)c3ccccc23)cc1 [DORAMAPIMOD]		> 3.98 µM (inactive)				> 1.58 µM (inactive)	> 5.01 µM (inactive)							> 2 µM (inactive)		> 2 µM (inactive)	
